Reference: patent publication US20230127944A1, “BROAD-SPECTRUM CARBAPENEMS” (priority 2019, published 2023)
Values after ≈ are worked out from the molar mass of the structure shown.

Key:
Format in all cases: cell-based
[1] = tested on: P. aeruginosa Paeβ-17; test: broth microdilution MIC assay, P. aeruginosa Paeβ-17; settings: Pseudomonas aeruginosa, read-out: MIC, P. aeruginosa Paeβ-17
Summary of the method: (§1)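 MIC was scored by eye as the lowest concentration showing no visible growth after 16-20 h at 37 °C. Bacteria grown 3-5 h in divalent-cation-supplemented Mueller-Hinton broth were added at 5×10^5 CFU/mL to 2-fold serial compound dilutions, following CLSI methods.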

[2] = tested on: S. aureus USA 300; test: broth microdilution MIC assay, S. aureus USA300; settings: Staphylococcus aureus; S. aureus USA300 (MRSA); read-out: MIC, S. aureus USA300
Summary of the method: as §1

[3] = tested on: S. aureus USA 600; test: broth microdilution MIC assay, S. aureus USA600; settings: Staphylococcus aureus; S. aureus USA600 (MRSA); read-out: MIC, S. aureus USA600
Summary of the method: as §1

[4] = tested on: S. aureus ATCC 33591 (methicillin-resistant); test: broth microdilution MIC assay, S. aureus 33591; settings: Staphylococcus aureus, ATCC33591; S. aureus 33591, methicillin-resistant; read-out: MIC, S. aureus 33591
Summary of the method: as §1

[5] = tested on: Methicillin Resistant S. aureus (MRSA) clinical isolates; test: expanded MIC profiling, MRSA clinical isolates; settings: Staphylococcus aureus
Protocol: (§2) To evaluate the activity of selected example compounds against clinical isolates of target species, standard cell-based broth microdilution MIC assays were employed. A panel of 20 clinical isolates of P. aeruginosa and 20 clinical isolates of Methicillin Resistant S. aureus (MRSA) from Lankenau Medical Center (Wynnewood, Pa.) were used. In the set of P. aeruginosa isolates, the compounds were also tested in combination with a β-lactamase inhibitor (taniborbactam), to evaluate the potential benefit of inhibiting β-lactamase enzymes. The assay was conducted in Cation Adjusted Mueller Hinton Broth (CAMHB, BD #212322, BD Diagnostic Systems, Sparks, Md.). Bacteria strains were grown for 3-5 hours in CAMHB. Compounds were added to a microtiter plate in 2-fold serial dilutions in CAMHB. For plates receiving β-lactamase inhibitor, taniborbactam was added to obtain a final fixed concentration of 4 μg/mL. Once the test articles were added, the plates were inoculated according to CLSI broth microdilution method. After inoculation, the plates were incubated for 16-20 hours at 37° C. then the Minimal Inhibitory Concentration (MIC) of the test compound is determined visually. Values for concentration required to inhibit growth of […] (MIC50) and 90% (MIC90) of isolates were determined.

[6] = tested on: P. aeruginosa ΔmexAB-OprM (an efflux pump knockout); test: broth microdilution MIC assay, P. aeruginosa ΔmexAB-OprM; settings: Pseudomonas aeruginosa, read-out: MIC, P. aeruginosa ΔmexAB-OprM
Summary of the method: as §1

[7] = tested on: P. aeruginosa ATCC 27853 (wild-type/QC strain); test: broth microdilution MIC assay, P. aeruginosa 27853; settings: Pseudomonas aeruginosa, ATCC27853; read-out: MIC, P. aeruginosa 27853
Summary of the method: as §1

[8] = tested on: P. aeruginosa clinical isolates; test: expanded MIC profiling, P. aeruginosa clinical isolates; settings: Pseudomonas aeruginosa
Protocol: as §2

[9] = tested on: E. coli ATCC 25922 (wild-type/QC strain); test: broth microdilution MIC assay, E. coli 25922; settings: Escherichia coli, ATCC25922; read-out: MIC, E. coli 25922
Summary of the method: as §1

[10] = panel of S. aureus (MRSA) isolates of Table 5
[11] = panel of 20 P. aeruginosa clinical isolates

Compound: C[C@@H](O)[C@H]1C(=O)N2C(C(=O)O)=C(S[C@@H]3CCN(C[C@H]4CC[C@H](NC(=N)N)CC4)C3)[C@H](C)[C@H]12 [Example 28, (4R,5S,6S)-3-(((R)-1-(((1R,4R)-4-guanidinocyclohexyl)methyl)pyrrolidin-3-yl)thio)-6-((R)-1-hydroxyethyl)-4-methyl-7-oxo-1-azabicyclo[3.2.0]hept-2-ene-2-carboxylic acid]
- MIC [1]: 8 to 32 µg/mL (≈ 17.2 to 68.7 µM)
- MIC [2]: 1 to 4 µg/mL (≈ 2.15 to 8.59 µM)
- MIC [3]: < 1 µg/mL
- MIC [4]: 1 to 4 µg/mL (≈ 2.15 to 8.59 µM)
- MIC ([5]; ATCC 33591 / MRSA, S. aureus ATCC-33591): 2 µg/mL
- MIC ([5]; MRSA, S. aureus clinical isolate LH-SA3): 0.5 µg/mL
- MIC ([5]; MRSA, S. aureus clinical isolate LH-SA9): 0.5 µg/mL
- MIC ([5]; MRSA, S. aureus clinical isolate LH-SA23): 0.5 µg/mL
- MIC ([5]; MRSA, S. aureus clinical isolate LH-SA24): 0.5 µg/mL
- MIC ([5]; MRSA, S. aureus clinical isolate LH-SA26): 0.5 µg/mL
- MIC ([5]; MRSA, S. aureus clinical isolate LH-SA29): 2 µg/mL
- MIC ([5]; MRSA, S. aureus clinical isolate LH-SA33): 2 µg/mL
- MIC ([5]; MRSA, S. aureus clinical isolate LH-SA34): 4 µg/mL
- MIC ([5]; MRSA, S. aureus clinical isolate LH-SA37): 0.25 µg/mL
- MIC ([5]; MRSA, S. aureus clinical isolate LH-SA38): 4 µg/mL
- MIC ([5]; MRSA, S. aureus clinical isolate LH-SA39): 2 µg/mL
- MIC ([5]; MRSA, S. aureus clinical isolate LH-SA40): 2 µg/mL
- MIC ([5]; MRSA, S. aureus clinical isolate LH-SA41): 2 µg/mL
- MIC ([5]; MRSA, S. aureus clinical isolate LH-SA42): 0.5 µg/mL
- MIC ([5]; MRSA, S. aureus clinical isolate LH-SA44): 4 µg/mL
- MIC ([5]; MRSA, S. aureus clinical isolate LH-SA45): 16 µg/mL
- MIC ([5]; MRSA, S. aureus clinical isolate LH-SA48): 0.5 µg/mL
- MIC ([5]; MRSA, S. aureus clinical isolate LH-SA49): 0.5 µg/mL
- MIC ([5]; MRSA, S. aureus clinical isolate LH-SA50): 0.5 µg/mL
- MIC50 [5, 10]: 0.5 µg/mL
- MIC90 [5, 10]: 4 µg/mL
- MIC [6]: < 1 µg/mL
- MIC [7]: 1 to 4 µg/mL (≈ 2.15 to 8.59 µM)
- MIC ([8]; P. aeruginosa clinical isolate Lankenau 11): 2 µg/mL
- MIC ([8]; P. aeruginosa clinical isolate Lankenau 12): 0.5 µg/mL
- MIC ([8]; P. aeruginosa clinical isolate Lankenau 13): 0.5 µg/mL
- MIC ([8]; P. aeruginosa clinical isolate Lankenau 14): 1 µg/mL
- MIC ([8]; P. aeruginosa clinical isolate Lankenau 15): 1 µg/mL
- MIC ([8]; P. aeruginosa clinical isolate Lankenau 16): 1 µg/mL
- MIC ([8]; P. aeruginosa clinical isolate Lankenau 17): 1 µg/mL
- MIC ([8]; P. aeruginosa clinical isolate Lankenau 18): 1 µg/mL
- MIC ([8]; P. aeruginosa clinical isolate Lankenau 19): 1 µg/mL
- MIC ([8]; P. aeruginosa clinical isolate Lankenau 20): 1 µg/mL
- MIC ([8]; P. aeruginosa clinical isolate Lankenau 21): 1 µg/mL
- MIC ([8]; P. aeruginosa clinical isolate Lankenau 22): 1 µg/mL
- MIC ([8]; P. aeruginosa clinical isolate Lankenau 23): 2 µg/mL
- MIC ([8]; P. aeruginosa clinical isolate Lankenau 24): 2 µg/mL
- MIC ([8]; P. aeruginosa clinical isolate Lankenau 25): 2 µg/mL
- MIC ([8]; P. aeruginosa clinical isolate Lankenau 26): 2 µg/mL
- MIC ([8]; P. aeruginosa clinical isolate Lankenau 27): 2 µg/mL
- MIC ([8]; P. aeruginosa clinical isolate Lankenau 28): 8 µg/mL
- MIC ([8]; P. aeruginosa clinical isolate Lankenau 29): 16 µg/mL
- MIC ([8]; P. aeruginosa clinical isolate Lankenau 30): 32 µg/mL
- MIC50 [8, 11]: 1 µg/mL
- MIC90 [8, 11]: 8 µg/mL
- MIC [9]: < 1 µg/mL
